Test results published in ChEMBL document CHEMBL4732223, “Prenylated flavonoids from Ficus hirta induces HeLa cells apoptosis via MAPK and AKT signaling pathways” (Bioorg Med Chem Lett, 2021).
Activity calls are given as the source filed them. The rule behind the calls is not given here.

Columns and labels:
[1] = system: HeLa; experiment: Cytotoxicity against human HeLa cells assessed as inhibition of cell proliferation by MTT assay; assay type: functional, cell-based
[2] = system: HepG2; experiment: Cytotoxicity against human HepG2 cells assessed as inhibition of cell proliferation by MTT assay; assay type: functional, cell-based
[3] = system: NCI-H460; experiment: Cytotoxicity against human NCI-H460 cells assessed as inhibition of cell proliferation by MTT assay; assay type: functional, cell-based
[4] = system: MCF7; experiment: Cytotoxicity against human MCF7 cells assessed as inhibition of cell proliferation by MTT assay; assay type: functional, cell-based
[5] = Induction of apoptotis in human HeLa cells assessed as necrotic cells at 20 uM measured after 24 hrs by FITC/propidium iodide staining based flow cytometry (reference value: 2.59 %); assay type: functional
[6] = Induction of apoptotis in human HeLa cells assessed as late apoptotic cells at 20 uM measured after 24 hrs by FITC/propidium iodide staining based flow cytometry (reference value: 2.74 %); assay type: functional
[7] = biological target: Serine/threonine-protein kinase AKT (Homo sapiens) (UniProt P31751+Q9Y243+P31749); experiment: […] of AKT signaling pathway in human HeLa cells assessed as reduction in phosphorylated AKT expression measured after 24 hrs by Western blot analysis; assay type: cell-based; details: dose 10-30 µM
Sequence of Serine/threonine-protein kinase AKT (Homo sapiens) (P31749 whole entry, looked up): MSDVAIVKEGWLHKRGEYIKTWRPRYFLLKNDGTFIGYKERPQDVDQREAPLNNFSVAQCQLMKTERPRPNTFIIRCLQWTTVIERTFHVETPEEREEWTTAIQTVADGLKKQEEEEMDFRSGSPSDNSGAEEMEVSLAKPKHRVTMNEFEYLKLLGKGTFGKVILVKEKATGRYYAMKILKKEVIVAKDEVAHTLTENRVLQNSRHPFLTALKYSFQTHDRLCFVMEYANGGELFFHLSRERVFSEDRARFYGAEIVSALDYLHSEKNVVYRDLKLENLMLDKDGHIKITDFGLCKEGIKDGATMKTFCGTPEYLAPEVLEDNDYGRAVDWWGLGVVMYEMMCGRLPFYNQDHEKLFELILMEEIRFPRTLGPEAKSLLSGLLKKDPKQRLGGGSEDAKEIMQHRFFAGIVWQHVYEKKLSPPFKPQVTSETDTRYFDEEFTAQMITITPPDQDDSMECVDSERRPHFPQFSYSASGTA
Sequence of Serine/threonine-protein kinase AKT (Homo sapiens) (P31751 whole entry, looked up): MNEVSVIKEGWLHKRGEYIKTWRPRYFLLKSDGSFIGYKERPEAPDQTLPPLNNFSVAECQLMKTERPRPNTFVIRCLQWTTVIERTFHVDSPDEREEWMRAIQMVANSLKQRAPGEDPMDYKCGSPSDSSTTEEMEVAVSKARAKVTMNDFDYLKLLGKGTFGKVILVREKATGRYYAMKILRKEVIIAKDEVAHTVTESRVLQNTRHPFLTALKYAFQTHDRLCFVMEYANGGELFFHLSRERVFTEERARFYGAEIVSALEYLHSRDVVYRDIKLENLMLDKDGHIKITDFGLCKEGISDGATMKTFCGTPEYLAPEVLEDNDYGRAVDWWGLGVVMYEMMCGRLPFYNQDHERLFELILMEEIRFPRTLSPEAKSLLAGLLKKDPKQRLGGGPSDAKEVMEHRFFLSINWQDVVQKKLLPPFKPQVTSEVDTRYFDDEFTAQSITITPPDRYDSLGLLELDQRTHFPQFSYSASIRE
Sequence of Serine/threonine-protein kinase AKT (Homo sapiens) (Q9Y243 whole entry, looked up): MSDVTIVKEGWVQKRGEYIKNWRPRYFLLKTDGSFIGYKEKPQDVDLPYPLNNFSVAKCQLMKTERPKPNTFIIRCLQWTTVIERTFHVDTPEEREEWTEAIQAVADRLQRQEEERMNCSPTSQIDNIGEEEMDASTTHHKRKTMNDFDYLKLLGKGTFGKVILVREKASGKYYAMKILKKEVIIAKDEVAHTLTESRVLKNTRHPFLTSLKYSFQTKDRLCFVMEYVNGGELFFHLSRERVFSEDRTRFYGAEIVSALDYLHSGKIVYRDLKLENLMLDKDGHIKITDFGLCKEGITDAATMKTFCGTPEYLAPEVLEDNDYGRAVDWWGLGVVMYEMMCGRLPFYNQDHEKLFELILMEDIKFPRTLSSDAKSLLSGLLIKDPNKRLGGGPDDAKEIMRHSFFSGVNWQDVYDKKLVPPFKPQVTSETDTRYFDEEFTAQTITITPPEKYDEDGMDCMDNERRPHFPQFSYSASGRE

[8] = Induction of apoptotis in human HeLa cells assessed as necrotic cells at 10 uM measured after 24 hrs by FITC/propidium iodide staining based flow cytometry (reference value: 2.59 %); assay type: functional
[9] = Induction of apoptotis in human HeLa cells assessed as early apoptotic cells at 10 uM measured after 24 hrs by FITC/propidium iodide staining based flow cytometry (reference value: 5.46 %); assay type: functional
[10] = system: HeLa; experiment: Activation of MAPK signaling pathway in human HeLa cells assessed as increase in phosphorylated JNK protein level at 30 uM measured after 24 hrs by Western blot analysis; assay type: cell-based; details: filed as activator
[11] = Induction of apoptotis in human HeLa cells assessed as early apoptotic cells at 40 uM measured after 24 hrs by FITC/propidium iodide staining based flow cytometry (reference value: 5.46 %); assay type: functional
[12] = Induction of apoptotis in human HeLa cells assessed as early apoptotic cells at 30 uM measured after 24 hrs by FITC/propidium iodide staining based flow cytometry (reference value: 5.46 %); assay type: functional
[13] = Induction of apoptotis in human HeLa cells assessed as live cells at 10 uM measured after 24 hrs by FITC/propidium iodide staining based flow cytometry (reference value: 89.2 %); assay type: functional
[14] = Induction of apoptotis in human HeLa cells assessed as late apoptotic cells at 30 uM measured after 24 hrs by FITC/propidium iodide staining based flow cytometry (reference value: 2.74 %); assay type: functional
[15] = system: HeLa; experiment: Activation of MAPK signaling pathway in human HeLa cells assessed as reduction in phosphorylated ERK expression measured after 24 hrs by Western blot analysis; assay type: cell-based; details: filed as activator, dose 10-30 µM
[16] = Induction of apoptotis in human HeLa cells assessed as necrotic cells at 30 uM measured after 24 hrs by FITC/propidium iodide staining based flow cytometry (reference value: 2.59 %); assay type: functional
[17] = Induction of apoptotis in human HeLa cells assessed as live cells at 20 uM measured after 24 hrs by FITC/propidium iodide staining based flow cytometry (reference value: 89.2 %); assay type: functional
[18] = system: HeLa; experiment: Activation of MAPK signaling pathway in human HeLa cells assessed as increase in phosphorylated p38 protein level at 30 uM measured after 24 hrs by Western blot analysis; assay type: cell-based; details: filed as activator
[19] = Induction of apoptotis in human HeLa cells assessed as early apoptotic cells at 20 uM measured after 24 hrs by FITC/propidium iodide staining based flow cytometry (reference value: 5.46 %); assay type: functional
[20] = system: HeLa; experiment: Induction of apoptosis in human HeLa cells assessed as increase in PARP cleavage measured after 24 hrs by Western blot analysis; assay type: functional, cell-based; details: dose 10-30 µM
[21] = Induction of apoptotis in human HeLa cells assessed as live cells at 40 uM measured after 24 hrs by FITC/propidium iodide staining based flow cytometry (reference value: 89.2 %); assay type: functional
[22] = Induction of apoptotis in human HeLa cells assessed as live cells at 30 uM measured after 24 hrs by FITC/propidium iodide staining based flow cytometry (reference value: 89.2 %); assay type: functional
[23] = Induction of apoptotis in human HeLa cells assessed as late apoptotic cells at 10 uM measured after 24 hrs by FITC/propidium iodide staining based flow cytometry (reference value: 2.74 %); assay type: functional
[24] = Induction of apoptotis in human HeLa cells assessed as late apoptotic cells at 40 uM measured after 24 hrs by FITC/propidium iodide staining based flow cytometry (reference value: 2.74 %); assay type: functional
[25] = Induction of apoptotis in human HeLa cells assessed as necrotic cells at 40 uM measured after 24 hrs by FITC/propidium iodide staining based flow cytometry (reference value: 2.59 %); assay type: functional

## CC(C)=CCc1c(O)cc(O)c2c(=O)cc(-c3ccc(O)cc3)oc12
[1]
  IC50: > 40 µM
[2]
  IC50: > 40 µM
[3]
  IC50: > 40 µM
[4]
  IC50: > 40 µM

## CC(C)=CCc1c(O)cc2oc(-c3ccc(O)c(O)c3)cc(=O)c2c1O
[1]
  IC50: > 40 µM
[2]
  IC50: > 40 µM
[3]
  IC50: > 40 µM
[4]
  IC50: > 40 µM

## CC(C)=CCc1cc(-c2cc(=O)c3c(O)cc(O)cc3o2)ccc1O
[1]
  IC50: > 40 µM
[2]
  IC50: > 40 µM
[3]
  IC50: > 40 µM
[4]
  IC50: > 40 µM

## CC(C)=CCc1cc(-c2cc(=O)c3c(O)cc(O)cc3o2)cc(O)c1O
[1]
  IC50: > 40 µM
[2]
  IC50: > 40 µM
[3]
  IC50: > 40 µM
[4]
  IC50: > 40 µM

## COc1c(CC=C(C)C)cc(C2CC(=O)c3c(O)cc(O)cc3O2)c(CC=C(C)C)c1OC (racemic)
[1]
  IC50: > 40 µM
[2]
  IC50: > 40 µM
[3]
  IC50: > 40 µM
[4]
  IC50: > 40 µM

## CC(C)=CCc1c(O)cc2oc(-c3ccc(O)cc3)cc(=O)c2c1O
[1]
  IC50: 28.9 µM
[5]
  Activity: 0.88%
[6]
  Activity: 3.23%
[7]
  Activity: Dose-dependent effect
[8]
  Activity: 0.75%
[9]
  Activity: 6.92%
[10]
  Activity: Active
[11]
  Activity: 12.5%
[12]
  Activity: 9.41%
[2]
  IC50: > 40 µM
[13]
  Activity: 88.2%
[14]
  Activity: 3.4%
[15]
  Activity: Dose-dependent effect
[16]
  Activity: 0.69%
[17]
  Activity: 87.6%
[18]
  Activity: Active
[3]
  IC50: 38.5 µM
[19]
  Activity: 8.25%
[20]
  Activity: Dose-dependent effect
[21]
  Activity: 82.6%
[4]
  IC50: 32.4 µM
[22]
  Activity: 86.5%
[23]
  Activity: 4.11%
[24]
  Activity: 4.28%
[25]
  Activity: 0.63%
